In PubChem BioAssay AID2305 (GlaxoSmithKline (GSK), 2010):
“And” between values parts separate entries of the source, which are not always exact repeats. Equal entries are not always repeated.

tested on: P. falciparum 3D7 growth, pLDH absorbance; assay: P. falciparum 3D7 growth inhibition, dose response, strain 3D7 (AID 2305)

Row | Structure (SMILES) | IC50
1 | COc1ccc(C2CC(c3cccs3)=NN2C(=O)c2ccco2)cc1OC (stereo not drawn) | 170 nM
2 | CC(C)C[C@H](NC(=O)c1cc2cc(OCCN3CCNCC3)ccc2o1)C(=O)NC1CC[C@@H](C)N(C(=O)Nc2ccc(Cl)cc2)CC1=O (stereo partly drawn) | 380 nM
3 | CCCCOc1ccccc1C(=O)NCc1csc(-c2ccccc2)n1 | 560 nM
4 | CS(=O)(=O)c1ccc(CNCc2ccc(-c3ccc(-c4nc5ccc(C(F)(F)F)cc5[nH]4)cc3)cc2)cc1 | 710 nM
5 | CCn1cc(C=C2Oc3c(ccc(O)c3CN3CCCCC3)C2=O)c2cc(OC)ccc21 | 520 nM
6 | Cc1ccc2nc(C)cc(NN=Cc3ccc(Cl)cc3)c2c1 | 990 nM
7 | CS(=O)(=O)c1ccc(CNCc2cccc(-c3cccc(-c4nc5ccc(F)cc5[nH]4)c3)c2)cc1 | 560 nM
8 | CCOc1cc(C(=O)NC2CCN(Cc3ccccc3)CC2)ccc1-c1nc2cc(Cl)c(Cl)cc2[nH]1 | 470 nM
9 | COc1cc(OC)c2c(C)cc(NCCCN3CCOCC3)nc2c1 | 1070 nM
10 | NCc1ccc(CNCc2cccc(-c3ccc(-c4nc5ccc(C(F)(F)F)cc5[nH]4)cc3)c2)cc1 | 260 nM
11 | Cn1cc(C2CCN(CCCCNC(=O)c3sc(-c4ccc(C(F)(F)F)cc4)nc3CO)CC2)c2ccccc21 | 1060 nM
12 | Cc1csc(-c2ccc3[nH]cc(C4=CCN(C)CC4)c3c2)n1 | 750 nM
13 | CCOC(C(=O)OCCN(C(C)C)C(C)C)(c1ccccc1)c1ccccc1 | 870 nM
14 | CC(C)CC(=O)Nc1cc(=O)[nH]c2nc(-c3ccccc3)nn12 | 350 nM
15 | CCOC(=O)/C(=N\OC(C)(C)C(=O)NCc1ccc(O)c(O)c1)c1csc(NC(c2ccccc2)(c2ccccc2)c2ccccc2)n1 | 170 nM
16 | Cc1onc(-c2c(F)cccc2Cl)c1C(=O)Nc1ccccc1I | 950 nM
17 | CCCC(C)NC(=O)C(N)Cc1cccc(I)c1 (stereo not drawn) | 980 nM
18 | FC(F)(F)c1ccc2nc(-c3ccc(-c4cccc(CN5CCN(CCN6CCOCC6)CC5)c4)cc3)[nH]c2c1 | 160 nM
19 | COc1ccc(C(F)(F)F)cc1N1CCN(CCCCNC(=O)c2ccc(NC(=O)c3ccc(Cl)cc3)cc2)CC1 | 910 nM
20 | CCCCC(CC)NC(=O)[C@H]1CNCCN1C(=O)CCCc1ccccc1 (stereo partly drawn) | 890 nM
21 | Nc1nc(N)c2c(ccc3c2ccn3CCCC2CCCNC2)n1 (stereo not drawn) | 900 nM
22 | Oc1ccc(C=NNC(=S)Nc2cccc3ccccc23)c(O)c1 | 1040 nM
23 | O=C(Nc1cccc(-c2ccc(-c3nc4ccc(C(F)(F)F)cc4[nH]3)cc2)c1)c1csnn1 | 690 nM
24 | OCC(CO)(CO)NCc1ccc2c3c(cccc13)-c1ccccc1-2 | 1260 nM

Row | Structure (SMILES) | IC50
25 | COc1cc(C)c(NC(=O)c2cccc3c(=O)c(C)c(-c4ccccc4)oc23)cc1OC | 1630 nM
26 | Cc1cccc2[nH]c(-c3ccc(-c4ccc(CNCCc5ccncc5)cc4)cc3)nc12 | 210 nM
27 | Cc1cccc2[nH]c(-c3cccc(-c4cccc(NC(=O)c5ccncc5)c4)c3)nc12 | 240 nM
28 | FC(F)(F)c1cc(CNCCCNc2nc3ccncc3[nH]2)ccc1Cl | 1010 nM
29 | C[C@@]12C[C@@H](Nc3nc(NCCc4ccc(O)cc4)nc(N4CCNCC4)n3)C[C@@H](C1)c1cccc(Cl)c1O2 | 1320 nM
30 | Cc1cc(N[C@@H](CC(C)C)C(=O)NCCc2ccccc2)nc(Nc2ccccc2)n1 | 820 nM
31 | CCCN(CCC)CCCCC(C)Nc1c2ccc(Cl)cc2nc2ccc(OC)cc12 (stereo not drawn) | 140 nM
32 | COc1ccc(C=NNc2nc3ccccc3[nH]2)cc1O | 920 nM
33 | N#Cc1ccc(-c2ccc(C(=O)NCCCCN3CCC(c4cc(Br)c5c(c4O)CCCC5)CC3)cc2)cc1 | 150 nM
34 | CN1CCN(c2ccnc3ccc(NC(=O)Cc4cccc(Cl)c4Cl)cc23)CC1 | 790 nM
35 | CCCCCc1cc(OC(C)=O)c2c(c1)OC(C)(C)C=C2C1=CCN(Cc2ccccc2)CC1 | 930 nM
36 | CN1CCN(CCc2ccc(N=Cc3c(=O)[nH]c4ccc5[nH]cccc5c34)cc2)CC1 | 330 nM
37 | Cc1cccc(-n2c(Nc3ccc(C)c(Cl)c3)nc3ccc(S(=O)(=O)NC(C)C(C)C)cc32)c1 (stereo not drawn) | 650 nM
38 | FC(F)(F)c1ccc(NC(=S)NC2CCC(CN3CCC(c4c[nH]c5ccccc45)CC3)CC2)cc1 (stereo not drawn) | 730 nM and 390 nM
39 | COc1ccc2nc(-c3ccc(C(=O)NCCCN4CCN(c5cc(Cl)ccc5OC)CC4)cc3)[nH]c2c1 | 770 nM
40 | COc1ccccc1NC(=S)N/N=C/c1ccc(O)cc1O | 1020 nM
41 | O=C(Nc1cccc(C(F)(F)F)c1)c1ccc(S(=O)(=O)NCC2CCCN(CC3CCCCC3)C2)cc1 (stereo not drawn) | 900 nM
42 | O=C(Nc1ccc(Br)cc1)N(CCN1CCOCC1)CC(O)COCc1ccc(Cl)c(Cl)c1 (stereo not drawn) | 930 nM
43 | Cc1cccc2[nH]c(-c3ccc(-c4ccc(CNC(C)C)cc4)cc3)nc12 | 680 nM
44 | CN1CCN(Cc2cc3cc(NC(=O)/C=C/c4cccc(Cl)c4)ccc3s2)CC1 | 270 nM
45 | O=C(NCc1cccc(F)c1)Nc1cccc(-c2ccc(-c3nc4ccc(C(F)(F)F)cc4[nH]3)cc2)c1 | 770 nM
46 | O=[N+]([O-])c1cccc(-c2nc3ccc(C4=N[C@H]5CCCC[C@H]5N4)cc3[nH]2)c1 | 200 nM
47 | CCN1CCN(c2cc(C)c3cc(NC(=O)c4ccc(Br)o4)ccc3n2)CC1 | 750 nM
48 | O=C(/C=C/c1ccc(Cl)c(Cl)c1)NC1CCC(CN2CCC(c3c[nH]c4ccc(O)cc34)CC2)CC1 (stereo not drawn) | 140 nM and 420 nM
